Drawing on patent publication US12295396B2, “Antagonists of T2R54 and compositions and uses thereof” (Firmenich Incorporated, priority 2018, dated 2025), this text covers IC50 for 55 compounds.

For the test, the target named is T1, hT2R54 (Homo sapiens, UniProt P59534).
T1 construct: expressed in transfected cells; it overexpresses a promiscuous G protein
T1 sequence (P59534 1-338): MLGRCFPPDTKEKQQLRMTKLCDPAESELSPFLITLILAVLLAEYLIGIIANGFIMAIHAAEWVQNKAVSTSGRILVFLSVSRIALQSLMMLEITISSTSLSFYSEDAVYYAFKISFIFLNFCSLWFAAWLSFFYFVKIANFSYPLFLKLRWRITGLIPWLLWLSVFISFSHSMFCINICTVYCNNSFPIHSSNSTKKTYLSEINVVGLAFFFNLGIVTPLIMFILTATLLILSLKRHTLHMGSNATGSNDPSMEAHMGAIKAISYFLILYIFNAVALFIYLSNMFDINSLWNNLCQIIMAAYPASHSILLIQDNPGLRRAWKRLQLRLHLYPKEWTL
Kind of test: Cell-based assay for measuring hT2R54 inhibition (FLIPR calcium, Fluo4AM, acetaminophen as bitter agonist). In a few lines:
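The readout was FLIPR calcium (Fluo4AM, 10 s baseline, 3 min post-addition) in cells stably carrying hT2R54 plus a promiscuous G protein, with host cells lacking hT2R54 as counter-control. Acetaminophen concentration series were tested with and without set test-compound levels. Half-maximal block of the agonist response gave the EC50/IC50.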

The mark [1] stands for this setting: Table 6, cells stably expressing hT2R54 and a promiscuous G protein, read-out: hT2R54 IC50.
Setting [2] is: Table 7, cells stably expressing hT2R54 and a promiscuous G protein, read-out: hT2R54 IC50.
[3] abbreviates: given in example heading, read-out: IC50.

Where two headings read alike, the source gives them in different places. Bounds are passed on as bounds.

For `CC(=O)c1cc2c(cc1NC(=O)CN1CCC(NC(=O)C(C)C)CC1)OCO2` [compound 168], under setting [1], the IC50 (usually the concentration at which inhibition is half-maximal) stood at 140 nM. On to `CC(=O)c1cc2c(cc1NC(=O)CN1CCC(NC(=O)CC(C)C)CC1)OCO2` [compound 169], for which the IC50 under setting [1] came to 140 nM. As for `CC(=O)c1cc2c(cc1NC(=O)CN1CCC(CNC(=O)CC(C)C)CC1)OCO2` [compound 170], the IC50 under setting [1] stood at 188 nM. Still for that read-out and setting: as for `CC(=O)c1cc2c(cc1NC(=O)CN1CCC(NC(=O)c3ccccc3)CC1)OCO2` [compound 171], the figure is 60 nM; as for `CC(=O)c1cc2c(cc1NC(=O)CN1CCC(NC(=O)c3ccco3)CC1)OCO2` [compound 172], 690 nM. Regarding `CC(=O)c1cc2c(cc1NC(=O)CN1CCC(NC(=O)c3cccs3)CC1)OCO2` [compound 173], the IC50 under setting [1] was determined as 110 nM.

`CC(=O)c1cc2c(cc1NC(=O)CN1CCC(NC(=O)c3ccccn3)CC1)OCO2` [compound 174]: the IC50 under setting [1] amounted to 270 nM. Turning to `CC(=O)c1cc2c(cc1NC(=O)CN1CCC(NC(=O)c3cccnc3)CC1)OCO2` [compound 175], the IC50 under setting [1] was determined as 110 nM. On to `CC(=O)c1cc2c(cc1NC(=O)CN1CCC(NC(=O)c3ccncc3)CC1)OCO2` [compound 176], for which, under setting [1], the concentration for half-maximal inhibition (IC50) was 450 nM. Regarding `CC(=O)c1cc2c(cc1NC(=O)CNC1CCN(C(=O)CC(C)C)CC1)OCO2` [compound 177], the IC50 under setting [1] came out at 200 nM. For `CC(=O)c1cc2c(cc1NC(=O)CNC1CCN(C(=O)c3ccco3)CC1)OCO2` [compound 178], under setting [1], the IC50 came out at 60 nM.

For the compound `CC(=O)c1cc2c(cc1NC(=O)CNC1CCN(C(=O)c3cccnc3)CC1)OCO2` [compound 179], the IC50 under setting [1] worked out at 90 nM.

Take `CC(=O)c1cc2c(cc1NC(=O)CN1CCC(N(C)C(=O)CC(C)C)CC1)OCO2` [compound 180]: the half-maximal inhibitory concentration (IC50) under setting [1] stood at 589 nM. Same read-out and setting: as for `CC(=O)c1cc2c(cc1NC(=O)CN1CCC(N(C)C(=O)c3ccco3)CC1)OCO2` [compound 181], the figure is 676 nM; as for `CC(=O)c1cc2c(cc1NC(=O)CN1CCC(N(C)C(=O)c3cccnc3)CC1)OCO2` [compound 182], 455 nM. In the case of `CC(=O)c1cc2c(cc1NC(=O)CN(C)C1CCN(C(=O)c3ccco3)CC1)OCO2` [compound 183, N-(6-Acetylbenzo[d][1,3]dioxol-5-yl)-2-((1-(furan-2-carbonyl)piperidin-4-yl)(methyl)amino)acetamide], the concentration for half-maximal inhibition (IC50) under setting [2] stood at 61 nM. On to `CC(=O)c1cc2c(cc1NC(=O)CN(C)C1CCN(C(=O)CC(C)C)CC1)OCO2` [compound 184, N-(6-Acetylbenzo[d][1,3]dioxol-5-yl)-2-(methyl(1-(3-methylbutanoyl)piperidin-4-yl)amino)acetamide], for which the IC50 under setting [2] was 98 nM.

On to `CC(=O)c1cc2c(cc1NC(=O)CN(C)C1CCCN(C(=O)CC(C)C)C1)OCO2` (stereo not shown) [compound 185], for which the 50% inhibitory concentration (IC50) under setting [2] worked out at 50 nM. Still for that read-out and setting: as for `CC(=O)c1cc2c(cc1NC(=O)CN(C)C1CCCN(C(=O)c3ccco3)C1)OCO2` (stereo not shown) [compound 186], the figure is 20 nM. Still for that read-out and setting: as for `CC(=O)c1cc2c(cc1NC(=O)CN(C)C1CCCN(C(=O)c3cccnc3)C1)OCO2` (stereo not shown) [compound 187], the figure is 100 nM; as for `CCOC(=O)N1CCCC(N(C)CC(=O)Nc2cc3c(cc2C(C)=O)OCO3)C1` (stereo not shown) [compound 188], 90 nM; as for `CCNC(=O)N1CCCC(N(C)CC(=O)Nc2cc3c(cc2C(C)=O)OCO3)C1` (stereo not shown) [compound 189], 30 nM.

Turning to `CCCS(=O)(=O)N1CCCC(N(C)CC(=O)Nc2cc3c(cc2C(C)=O)OCO3)C1` (stereo not shown) [compound 190], the IC50 under setting [2] amounted to 40 nM. Consider `CCOC(=O)C1CN(C(=O)c2ccco2)CCN1CC(=O)Nc1cc2c(cc1C(C)=O)OCO2` (stereo not shown) [compound 191, Ethyl 1-(2-((6-Acetylbenzo[d][1,3]dioxol-5-yl)amino)-2-oxoethyl)-4-(furan-2-carbonyl)piperazine-2-carboxylate], for which the IC50 under setting [3] was determined as 16 nM. Same read-out and setting: as for `CCOC(=O)C1CN(C(=O)CC(C)C)CCN1CC(=O)Nc1cc2c(cc1C(C)=O)OCO2` (stereo not shown) [compound 192, Ethyl 1-(2-((6-Acetylbenzo[d][1,3]dioxol-5-yl)amino)-2-oxoethyl)-4-(3-methylbutanoyl)piperazine-2-carboxylate], the figure is 57 nM. Take `CC(=O)c1cc2c(cc1NC(=O)CC1CCCN(C(=O)CC(C)C)C1)OCO2` (stereo not shown) [compound 193, N-(6-acetylbenzo[d][1,3]dioxol-5-yl)-2-(1-(3-methylbutanoyl)piperidin-3-yl)acetamide]: the IC50 (Table 8, read-out: hT2R54 IC50) was 17 nM. On the same count and under the same terms, as for `CC(=O)c1cc2c(cc1NC(=O)CC1CCCN(C(=O)c3ccco3)C1)OCO2` (stereo not shown) [compound 194, N-(6-Acetylbenzo[d][1,3]dioxol-5-yl)-2-(1-(furan-2-carbonyl)piperidin-3-yl)acetamide], the figure is 6 nM; as for `CC(=O)c1cc2c(cc1NC(=O)CC1CCCN(C(=O)c3cccs3)C1)OCO2` (stereo not shown) [compound 195, N-(6-Acetylbenzo[d][1,3]dioxol-5-yl)-2-(1-(thiophene-2-carbonyl)piperidin-3-yl)acetamide], 8 nM; as for `CC(=O)c1cc2c(cc1NC(=O)CC1CCCN(C(=O)c3ccoc3)C1)OCO2` (stereo not shown) [compound 196, N-(6-Acetylbenzo[d][1,3]dioxol-5-yl)-2-(1-(furan-3-carbonyl)piperidin-3-yl)acetamide], 184 nM. Same read-out and setting: as for `CC(=O)c1cc2c(cc1NC(=O)CC1CCN(C(=O)c3ccco3)CC1)OCO2` [compound 197, N-(6-Acetylbenzo[d][1,3]dioxol-5-yl)-2-(1-(furan-2-carbonyl)piperidin-4-yl)acetamide], the figure is 6 nM; as for `CC(=O)c1cc2c(cc1NC(=O)CC1CCN(C(=O)CC(C)C)CC1)OCO2` [compound 198, N-(6-acetylbenzo[d][1,3]dioxol-5-yl)-2-(1-(3-methylbutanoyl)piperidin-4-yl)acetamide], 45 nM; as for `CC(=O)c1cc2c(cc1NC(=O)CC1CCN(C(=O)c3cccs3)CC1)OCO2` [compound 199, N-(6-Acetylbenzo[d][1,3]dioxol-5-yl)-2-(1-(thiophene-2-carbonyl)piperidin-4-yl)acetamide], 12 nM.

With `CC(=O)c1cc2c(cc1NC(=O)CC1CCN(C(=O)c3ccoc3)CC1)OCO2` [compound 200, N-(6-Acetylbenzo[d][1,3]dioxol-5-yl)-2-(1-(furan-3-carbonyl)piperidin-4-yl)acetamide], the IC50 (Table 8, read-out: hT2R54 IC50) worked out at 149 nM. The same measure, in the same setting: as for `CC(=O)c1cc2c(cc1NC(=O)CC1CCN(C(=O)c3cnn(C)c3)CC1)OCO2` [compound 201, N-(6-Acetylbenzo[d][1,3]dioxol-5-yl)-2-(1-(1-methyl-1H-pyrazole-4-carbonyl)piperidin-4-yl)acetamide], the figure is 339 nM; as for `CC(=O)c1cc2c(cc1NC(=O)CC1CCCN(C(C)=O)C1)OCO2` (stereo not shown) [compound 202], 35 nM; as for `CCC(=O)N1CCCC(CC(=O)Nc2cc3c(cc2C(C)=O)OCO3)C1` (stereo not shown) [compound 203], 17 nM. Regarding `CCCC(=O)N1CCCC(CC(=O)Nc2cc3c(cc2C(C)=O)OCO3)C1` (stereo not shown) [compound 204], the IC50 (Table 8, read-out: hT2R54 IC50) was found to be 16 nM. On the same count and under the same terms, as for `CC(=O)c1cc2c(cc1NC(=O)CC1CCCN(C(=O)C(C)C)C1)OCO2` (stereo not shown) [compound 205], the figure is 12 nM; as for `CC(=O)c1cc2c(cc1NC(=O)C[C@@H]1CCCN(C(=O)CC(C)C)C1)OCO2` [compound 206], 25 nM; as for `CC(=O)c1cc2c(cc1NC(=O)CC1CCCN(C(=O)CC(C)(C)C)C1)OCO2` (stereo not shown) [compound 207], 360 nM.

Consider `CCC(C)C(=O)N1CCCC(CC(=O)Nc2cc3c(cc2C(C)=O)OCO3)C1` (stereo not shown) [compound 208], for which the IC50 (Table 8, read-out: hT2R54 IC50) worked out at 170 nM. The same measure, in the same setting: as for `CC(=O)c1cc2c(cc1NC(=O)CC1CCCN(C(=O)C3CCCO3)C1)OCO2` (stereo not shown) [compound 209], the figure is 56 nM; as for `CC(=O)c1cc2c(cc1NC(=O)CC1CCCN(C(=O)C3CCOC3)C1)OCO2` (stereo not shown) [compound 210], 1340 nM. In the case of `CC(=O)c1cc2c(cc1NC(=O)CC1CCCN(C(=O)C3CCCCO3)C1)OCO2` (stereo not shown) [compound 211], the IC50 (Table 8, read-out: hT2R54 IC50) came to 18 nM. Still for that read-out and setting: as for `CC(=O)c1cc2c(cc1NC(=O)CC1CCCN(C(=O)CN(C)C)C1)OCO2` (stereo not shown) [compound 212], the figure is over 1000 nM. For `CCOC(=O)N1CCCC(CC(=O)Nc2cc3c(cc2C(C)=O)OCO3)C1` (stereo not shown) [compound 213], for the setting “Table 8, read-out: hT2R54 IC50”, the IC50 was found to be 50 nM. `CCCOC(=O)N1CCCC(CC(=O)Nc2cc3c(cc2C(C)=O)OCO3)C1` (stereo not shown) [compound 214]: where the note is “Table 8, read-out: hT2R54 IC50”, the IC50 amounted to 320 nM. The same measure, in the same setting: as for `CC(=O)c1cc2c(cc1NC(=O)CC1CCCN(C(=O)OC(C)C)C1)OCO2` (stereo not shown) [compound 215], the figure is 160 nM. As for `CC(=O)c1cc2c(cc1NC(=O)CC1CCCN(C(=O)c3ccccc3)C1)OCO2` (stereo not shown) [compound 216], the IC50 (Table 8, read-out: hT2R54 IC50) came out at 80 nM.

`CC(=O)c1cc2c(cc1NC(=O)CC1CCCN(C(=O)c3ccccc3O)C1)OCO2` (stereo not shown) [compound 217]: the IC50 (Table 8, read-out: hT2R54 IC50) is 480 nM. Still for that read-out and setting: as for `CC(=O)c1cc2c(cc1NC(=O)CC1CCCN(C(=O)c3cccc(O)c3)C1)OCO2` (stereo not shown) [compound 218], the figure is over 1000 nM; as for `CC(=O)c1cc2c(cc1NC(=O)CC1CCCN(C(=O)c3ccc(O)cc3)C1)OCO2` (stereo not shown) [compound 219], 1460 nM; as for `CC(=O)c1cc2c(cc1NC(=O)C[C@@H]1CCCN(C(=O)c3ccco3)C1)OCO2` [compound 220], about 10 nM. In the case of `CC(=O)c1cc2c(cc1NC(=O)CC1CCCN(C(=O)c3cnn(C)c3)C1)OCO2` (stereo not shown) [compound 221], the IC50 (Table 8, read-out: hT2R54 IC50) worked out at 60 nM. Same read-out and setting: as for `CC(=O)c1cc2c(cc1NC(=O)CC1CCCN(S(C)(=O)=O)C1)OCO2` (stereo not shown) [compound 222], the figure is 60 nM.
